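Interpolation was linear, between the two tested concentrations surrounding the appropriate level; five concentrations were tested over 48 hours in 96-well plates. GI50 = concentration required for 50% inhibition of growth.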 Calls of active or inactive are those of the source. Rule as the data show it: active = GI50 up to about 1.1 µM and inactive = higher.
Assays:
Assay in all cases: DTP human tumour cell line panel, 48 h
A549 = system: A549
Malme-3M = system: Malme-3M
UACC-62 = system: UACC-62
NCI-H226 = system: NCI-H226
OVCAR-3 = system: OVCAR-3
HL-60 = system: HL-60
786-0 = system: 786-0
MOLT-4 = system: MOLT-4
PC-3 = system: PC-3
COLO 205 = system: COLO 205
UACC-257 = system: UACC-257
BT-549 = system: BT-549
U-251 = system: U-251
T47D = system: T47D
UO-31 = system: UO-31
OVCAR-4 = system: OVCAR-4
Hs-578T = system: Hs-578T
ACHN = system: ACHN
MDA-MB-231 = system: MDA-MB-231
SR = system: SR

Measured: GI50

On1c(-c2ccccc2)nc2ccccc2c1=S
inactive: A549 2.84 µM | Malme-3M 5 µM | UACC-62 3.7 µM | NCI-H226 9.16 µM | OVCAR-3 4.39 µM | HL-60 2.4 µM | 786-0 3.95 µM | MOLT-4 2.04 µM | PC-3 3.61 µM | COLO 205 3.12 µM | UACC-257 54.3 µM | BT-549 > 100 µM | U-251 4.95 µM | T47D 3.37 µM | UO-31 3.39 µM | OVCAR-4 2.22 µM | Hs-578T 16.5 µM | ACHN 5.21 µM | MDA-MB-231 70.3 µM

COCCN1C(=O)C2c3[nH]c4ccccc4c3C3CCC(C(C)(C)C)CC3C2C1=O (configuration not stated)
inactive: A549 19.1 µM | UACC-62 > 10 µM | NCI-H226 22.1 µM | OVCAR-3 17.5 µM | HL-60 16 µM | 786-0 17.2 µM | MOLT-4 > 10 µM | PC-3 13.4 µM | COLO 205 18.2 µM | UACC-257 16.7 µM | BT-549 18.8 µM | U-251 15.5 µM | T47D 20 µM | UO-31 13.9 µM | OVCAR-4 16.9 µM | Hs-578T 17.2 µM | ACHN > 10 µM | SR 11.7 µM | MDA-MB-231 17.3 µM

CC[C@@H](/C=C\CCC1(C[C@@H](N)CCC=C(C)C)OCCO1)O[Si](C(C)C)(C(C)C)C(C)C
inactive: A549 18.2 µM | UACC-62 17.8 µM | NCI-H226 17.4 µM | OVCAR-3 18.7 µM | HL-60 4.28 µM | 786-0 17.4 µM | MOLT-4 17.6 µM | PC-3 16.1 µM | COLO 205 13.6 µM | UACC-257 19.3 µM | BT-549 20.1 µM | U-251 19.9 µM | T47D 23.2 µM | UO-31 17.6 µM | OVCAR-4 19.1 µM | Hs-578T 26 µM | ACHN 18 µM | SR 3.27 µM | MDA-MB-231 19 µM

CS(=O)(=O)c1ccc(/C=N/NC(N)=S)cc1
inactive: A549 > 100 µM | Malme-3M > 100 µM | UACC-62 > 100 µM | NCI-H226 > 100 µM | OVCAR-3 > 100 µM | HL-60 > 100 µM | 786-0 > 100 µM | MOLT-4 > 100 µM | PC-3 > 100 µM | COLO 205 > 100 µM | UACC-257 > 100 µM | BT-549 > 100 µM | U-251 > 100 µM | T47D > 100 µM | UO-31 > 100 µM | OVCAR-4 > 100 µM | Hs-578T > 100 µM | ACHN > 100 µM | MDA-MB-231 > 100 µM

O=C(/C=C1\N=C(c2ccccc2)N(c2nc3c(Cl)cc(Cl)cc3s2)C1=O)/C=C/c1ccccc1
inactive: A549 > 100 µM | Malme-3M > 100 µM | UACC-62 54.7 µM | OVCAR-3 75.3 µM | HL-60 91 µM | 786-0 > 100 µM | MOLT-4 52.1 µM | PC-3 69.3 µM | COLO 205 47.6 µM | UACC-257 > 100 µM | BT-549 > 100 µM | U-251 > 100 µM | T47D 24.9 µM | UO-31 > 100 µM | OVCAR-4 > 100 µM | Hs-578T > 100 µM | ACHN > 100 µM | MDA-MB-231 > 100 µM

C/C=C(\C)[C@@H](O)C(=O)O[C@@H]1CC(C(C)(C)O)[C@](C)(CCC(=O)OC)[C@H]2[C@H](OC(=O)[C@H](O)[C@H](C)CC)C[C@]3(C)C(=CC[C@H]3[C@H]3CO[C@H](C=C(C)C)C3)[C@]12C (some centres not stated)
inactive: A549 20.9 µM | NCI-H226 19.1 µM | OVCAR-3 20.1 µM | HL-60 16.7 µM | 786-0 16 µM | MOLT-4 19.7 µM | PC-3 16.7 µM | UACC-257 20.7 µM | BT-549 18 µM | U-251 18.8 µM | T47D 25.7 µM | UO-31 17.7 µM | OVCAR-4 19.8 µM | Hs-578T 19.8 µM | ACHN 18.1 µM | SR 14.5 µM | MDA-MB-231 19.6 µM

CC(=O)OCC1OC(N2C(=O)/C(=C\c3ccc(Cl)cc3)C(N)=Nc3ccccc32)C(OC(C)=O)C(OC(C)=O)C1OC(C)=O (configuration not stated)
inactive: A549 27.8 µM | Malme-3M 28.2 µM | UACC-62 29.4 µM | OVCAR-3 15.4 µM | HL-60 33 µM | 786-0 17.7 µM | MOLT-4 6.43 µM | PC-3 20.6 µM | COLO 205 12.1 µM | UACC-257 23.4 µM | BT-549 27.9 µM | U-251 14.6 µM | T47D 12.4 µM | UO-31 20.7 µM | OVCAR-4 20.4 µM | Hs-578T 28.4 µM | ACHN 20.2 µM | SR 16.4 µM | MDA-MB-231 19.3 µM

CN(CO)c1nc(N(C)CO)nc(N(C)CO)n1 [TRIMELAMOL]
inactive: A549 12.8 µM | Malme-3M 12.8 µM | UACC-62 13.3 µM | OVCAR-3 27.7 µM | HL-60 4.75 µM | 786-0 24.2 µM | MOLT-4 27.2 µM | PC-3 21.8 µM | COLO 205 8.53 µM | BT-549 20.9 µM | U-251 19.5 µM | T47D 32.1 µM | UO-31 19 µM | Hs-578T 27.8 µM | ACHN 27.5 µM | SR 39.6 µM | MDA-MB-231 21.5 µM

From ChEMBL document CHEMBL1201862, “PubChem BioAssay data set” (2004)
